Format in all cases: cell-based
For assay [1], the system named is breast cancer cell line (MDA-MB-231). The experiment in a line: MTS assay, cancer cell proliferation inhibition, breast cancer cell line. The settings on record: MDA-MB-231, 500 μM oligopeptide, 72 hours, OD 490 nm, vs untreated control (FIG. 2). The protocol:
(§1) To measure the cancer cell proliferation inhibitory effect of the oligopeptides synthesized in Example 1, an MTS (3-(4,5-dimethylthiazol-2-y)-5-(3-carboxymethoxyphenyl)-2-(4-sulfophenyl)-2H-tetrazolium, inner salt) assay for cancer cells was performed. Specifically, each of a lung cancer cell line (H1975), a breast cancer cell line (MDA-MB-231) and a blood cancer cell line (Daudi), which were cultured in 96-well microplates, was treated with 500 μM of the oligopeptides synthesized in Example 1, and incubated in a 37° C. incubator for 72 hours. Each cell culture was treated with an MTS reagent and incubated in a 37° C. incubator for 30 minutes or more, and absorbance (OD) was measured at 490 nm.

The test system of assay [2] is blood cancer cell line (Daudi). The experiment in a line: MTS assay, cancer cell proliferation inhibition, blood cancer cell line. The settings on record: 500 μM oligopeptide, 72 hours, OD 490 nm, vs untreated control (FIG. 3). The protocol:
as §1
(Tetrazolium dyes change colour on reduction, which living cells bring about.)

Assay [3] deals with lung cancer cell line (H1975). The experiment in a line: MTS assay, cancer cell proliferation inhibition, lung cancer cell line. The settings on record: H1975, 500 μM oligopeptide, 72 hours, OD 490 nm, vs untreated control (FIG. 1). The protocol:
as §1

Entries after “also recorded” stand apart in the source; their conditions may differ.

For the sequence AECSKYSYKG (pep #5), the “cancer cell proliferation inhibitory effect” value in assay [1] is listed as “better cancer cell proliferation inhibitory effect than an untreated control; also recorded: excellent cancer cell proliferation inhibitory effects”. The “cancer cell proliferation inhibitory activity” value in assay [2] is on record as “better cancer cell proliferation inhibitory activity than an untreated control; also recorded: excellent cancer cell proliferation inhibitory activity”.

As for ATWPDTVRQL (pep #1), in assay [2], the “cancer cell proliferation inhibitory activity” value was “better cancer cell proliferation inhibitory activity than an untreated control”.

Turning to CSKYSYKGLK (pep #4), in assay [1], the “cancer cell proliferation inhibitory effect” value was “better cancer cell proliferation inhibitory effect than an untreated control”. The “cancer cell proliferation inhibitory activity” value in assay [2] was “better cancer cell proliferation inhibitory activity than an untreated control”.

Consider GMLVLTPTRE (pep #8), for which the “cancer cell proliferation inhibitory effect” value in assay [1] was “better cancer cell proliferation inhibitory effect than an untreated control”. For the same sequence, the “cancer cell proliferation inhibitory activity” value in assay [3] is given as “excellent cancer cell proliferation inhibitory effects”; in assay [2], “better cancer cell proliferation inhibitory activity than an untreated control; also recorded: excellent cancer cell proliferation inhibitory activity”.

Turning to QTVMTSATWP (pep #6), the “cancer cell proliferation inhibitory activity” value in assay [3] is listed as “excellent cancer cell proliferation inhibitory effects”; in assay [2] it was “better cancer cell proliferation inhibitory activity than an untreated control”.

As for SICIYGGRNR (pep #7), the “cancer cell proliferation inhibitory effect” value in assay [1] is reported as “better cancer cell proliferation inhibitory effect than an untreated control; also recorded: excellent cancer cell proliferation inhibitory effects”. The “cancer cell proliferation inhibitory activity” value is “excellent cancer cell proliferation inhibitory effects” in assay [3] and “better cancer cell proliferation inhibitory activity than an untreated control” in assay [2].

As for SREQRNGPGM (pep #9), in assay [3], the “cancer cell proliferation inhibitory activity” value was “excellent cancer cell proliferation inhibitory effects”.

As for TSATWPDTVR (pep #2), the “cancer cell proliferation inhibitory effect” value in assay [1] is “better cancer cell proliferation inhibitory effect than an untreated control”. In assay [2], the “cancer cell proliferation inhibitory activity” value is “better cancer cell proliferation inhibitory activity than an untreated control”.

Consider WPDTVRQLAL (pep #3), for which, in assay [1], the “cancer cell proliferation inhibitory effect” value is listed as “better cancer cell proliferation inhibitory effect than an untreated control; also recorded: excellent cancer cell proliferation inhibitory effects”. Moreover, the “cancer cell proliferation inhibitory activity” value in assay [2] is “better cancer cell proliferation inhibitory activity than an untreated control”.

For the origin of these results see US12048730B2, “Pharmaceutical composition for preventing or treating cancer, containing oligopeptide as active ingredient” (L-BASE CO., LTD., priority 2018, dated 2024).
